Source: PMC12305662, “Fragment-Based Development of Small Molecule Inhibitors Targeting Mycobacterium tuberculosis Cholesterol Metabolism” (Journal of Medicinal Chemistry, 2025)
Converted amounts (≈) assume the structure as drawn. “And” between values parts separate entries of the source, which are not always exact repeats. Identical values can stand only once. Like-named read-outs stand apart in the source and are kept apart here.

Tests used:
[1] = system: Mtb/iniB reporter (cell wall damage response); type: cell-based, Mycobacterium tuberculosis; settings: 50–0.05 μM, days 1, 2, 4, 7
CYP125 [2] = molecular target: T1, CYP125 (Mycobacterium tuberculosis, UniProt P9WPP1); experiment: LC-MS substrate turnover assay (cholest-4-en-3-one); type: biochemical
Mtb CDC1551 [3] = experiment: Depletion of intracellular ATP, Mtb on glucose; settings: read-out: ATP IC50 (W1) CDC1551, glucose media; glucose as sole carbon source; 1 week
Experimental: (Mtb) H37Rv or CDC1551 strains were grown in Middlebrook 7H9 broth medium (Difco) supplemented with 0.3 g/L casitone, 0.81 g/L NaCl, 0.05% (v/v) tyloxapol, and either 97 mg/L cholesterol, 4 g/L glucose, or 0.2% glycerol. For inhibitor assays, a 10-fold serial dilution of the test compounds was made in the desired medium in duplicate rows of a 96-well plate. Mtb cells were then added to all the wells at the final concentration of 1 × 10^4 CFU, and plates were incubated at 37 °C for up to 15 days. Minimum inhibitory concentrations (MIC99) were determined using the Microplate Alamar Blue Assay (MABA) on day 15.
BacTiter Glo reagent (Promega) was added to microtiter plates (1:10 dilution) and luminescence was recorded after 15 min of incubation at room temperature. […] Isoniazid or p-amino salicylic acid were used as positive control compounds for all experiments. Reported MIC and IC50 values are the mean of duplicate treatments.

[4] = system: MDR-TB strain K26b00MR 113; experiment: microbe, parasite or virus in culture; type: cell-based, Mycobacterium tuberculosis; settings: Mycobacterium tuberculosis, K26b00MR 113
CYP2C9 = molecular target: T2, CYP2C9 (Homo sapiens, UniProt P11712); experiment: Inhibition of human liver microsomal P450s; type: in vitro ADME
T2 construct: from tissue; host or cells: human liver microsomes
Source text: (§1) Table S8. Inhibition of human liver microsomal P450s. Inhibition constants (IC 50 values, µM) of
(§2) following substrates: CYP1A-ethoxyresorufin, CYP2C19- mephenytoin, CYP2C9-tolbutamide, CYP2D6-
(§3) dextromethorphan, CYP3A4-midazolam/testosterone.

CYP3A4 = molecular target: T3, CYP3A4 (Homo sapiens, UniProt P08684); experiment: Inhibition of human liver microsomal P450s; type: in vitro ADME
T3 construct: from tissue; host or cells: human liver microsomes
Source text: as §1, §2, §3

CYP1A = molecular target: T4, CYP1A (Homo sapiens, UniProt P05177); experiment: Inhibition of human liver microsomal P450s; type: in vitro ADME
T4 construct: from tissue; host or cells: human liver microsomes
T4 sequence (P05177 2-516 limits assumed): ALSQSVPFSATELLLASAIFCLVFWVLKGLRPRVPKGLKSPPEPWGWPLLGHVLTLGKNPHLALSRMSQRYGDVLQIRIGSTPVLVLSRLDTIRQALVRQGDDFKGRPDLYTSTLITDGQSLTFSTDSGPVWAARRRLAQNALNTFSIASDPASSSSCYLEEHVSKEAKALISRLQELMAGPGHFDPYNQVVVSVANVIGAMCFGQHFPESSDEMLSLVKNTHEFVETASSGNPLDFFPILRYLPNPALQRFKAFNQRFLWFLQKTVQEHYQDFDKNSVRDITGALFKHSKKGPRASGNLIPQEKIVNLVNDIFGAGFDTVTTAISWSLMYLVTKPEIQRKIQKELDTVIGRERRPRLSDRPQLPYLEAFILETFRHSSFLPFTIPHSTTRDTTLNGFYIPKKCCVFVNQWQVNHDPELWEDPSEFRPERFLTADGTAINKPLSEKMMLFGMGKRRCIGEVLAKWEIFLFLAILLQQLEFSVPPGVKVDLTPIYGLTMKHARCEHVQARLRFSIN
Source text: as §1, §2, §3

CYP2C19 = molecular target: T5, CYP2C19 (Homo sapiens, UniProt P33261); experiment: Inhibition of human liver microsomal P450s; type: in vitro ADME
T5 construct: from tissue; host or cells: human liver microsomes
Source text: as §1, §2, §3

CYP2D6 = molecular target: T6, CYP2D6 (Homo sapiens, UniProt P10635); experiment: Inhibition of human liver microsomal P450s; type: in vitro ADME
T6 construct: from tissue; host or cells: human liver microsomes
Source text: as §1, §2, §3

CYP125 [5] = molecular target: T1, CYP125; experiment: biochemical; type: binding
HepG2 cells = experiment: HepG2 cytotoxicity assay (CellTiter Glo ATP); type: cell-based; settings: ATP (RLU)
Experimental: Compounds were tested against HepG2 cells for their ability to inhibit ATP production as a measure of cytotoxicity. HepG2 cells were cultured in DMEM supplemented with 10% (v/v) FBS, Hepes, L-glutamine and glucose or galactose. Compounds were serial diluted in microtiter plates (as described above) and HepG2 cells were added at a final concentration of 20,000 cells per well. Inhibition of ATP levels was noted by adding CellTiter Glo (Promega) reagent at a 1:10 dilution and luminescence was noted after 10 min incubation at room temperature.

Mtb CDC1551 [6] = experiment: Depletion of intracellular ATP (BacTiter Glo), Mtb on cholesterol; type: cell-based; settings: Mycobacterium tuberculosis, cholesterol as sole carbon source
[7] = system: Mtb/recA reporter (DNA damage response); type: cell-based, Mycobacterium tuberculosis; settings: 50–0.05 μM, days 1, 2, 4, 7
Mtb CDC1551 [8] = experiment: Extracellular Mtb growth on cholesterol, MABA MIC99; type: cell-based, Mycobacterium tuberculosis; settings: Mycobacterium tuberculosis, CDC1551, 336 h; cholesterol as sole carbon source; 2 weeks post-compound treatment; read-out: MABA-MIC99 (W2) CDC1551, cholesterol
[9] = system: Mtb H37Rv pATB45luc in THP-1 macrophages; experiment: microbe, parasite or virus in culture; type: cell-based; settings: Mycobacterium tuberculosis, 120 h, 5 days post-compound treatment, mean ± SD n = 2, read-out: intracellular growth Mtb IC50
Mtb (Erdman) = experiment: Extracellular Mtb (Erdman) growth on cholesterol-supplemented (0.01%) media, MABA; type: cell-based, Mycobacterium tuberculosis; settings: Mycobacterium tuberculosis, ERDMAN, 168 h, MABA 1 week post-compound treatment, mean ± SD n = 3, read-out: mixed media IC50 (Erdman)
[10] = system: uninfected THP-1 macrophages; experiment: THP-1 cytotoxicity (ATPLite); settings: concentrations up to 50 μM
Mtb H37Rv = experiment: Extracellular Mtb growth on cholesterol, MABA MIC99; type: cell-based, Mycobacterium tuberculosis; settings: Mycobacterium tuberculosis, H37RV
[11] = system: Mtb/radA reporter (DNA damage response); type: cell-based, Mycobacterium tuberculosis; settings: 50–0.05 μM, days 1, 2, 4, 7

T1 sequence (P9WPP1 whole entry): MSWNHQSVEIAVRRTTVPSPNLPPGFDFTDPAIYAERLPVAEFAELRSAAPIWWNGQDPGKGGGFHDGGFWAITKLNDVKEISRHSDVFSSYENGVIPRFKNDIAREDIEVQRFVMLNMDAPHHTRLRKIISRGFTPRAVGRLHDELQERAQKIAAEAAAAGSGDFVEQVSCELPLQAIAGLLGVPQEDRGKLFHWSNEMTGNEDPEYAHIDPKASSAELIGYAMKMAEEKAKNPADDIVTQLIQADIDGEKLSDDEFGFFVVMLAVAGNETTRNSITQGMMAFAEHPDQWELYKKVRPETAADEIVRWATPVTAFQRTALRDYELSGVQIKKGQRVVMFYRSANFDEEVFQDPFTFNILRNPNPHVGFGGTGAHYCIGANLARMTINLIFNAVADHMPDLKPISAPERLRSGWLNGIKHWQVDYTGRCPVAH
T3 sequence (P08684 whole entry): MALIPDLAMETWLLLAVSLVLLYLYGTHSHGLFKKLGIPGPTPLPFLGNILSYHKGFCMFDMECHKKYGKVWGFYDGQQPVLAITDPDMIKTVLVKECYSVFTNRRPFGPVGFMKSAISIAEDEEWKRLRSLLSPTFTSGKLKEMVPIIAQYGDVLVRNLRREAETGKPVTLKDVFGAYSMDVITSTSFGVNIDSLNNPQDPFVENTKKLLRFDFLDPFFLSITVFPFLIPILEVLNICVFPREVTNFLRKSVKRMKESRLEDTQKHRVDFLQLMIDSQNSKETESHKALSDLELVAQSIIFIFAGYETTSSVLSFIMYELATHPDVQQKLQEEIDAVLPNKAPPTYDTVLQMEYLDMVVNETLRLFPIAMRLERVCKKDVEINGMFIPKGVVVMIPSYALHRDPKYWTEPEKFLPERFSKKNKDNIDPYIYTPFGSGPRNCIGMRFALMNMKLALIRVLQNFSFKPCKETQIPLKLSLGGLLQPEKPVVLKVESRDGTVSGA
T2 sequence (P11712 whole entry): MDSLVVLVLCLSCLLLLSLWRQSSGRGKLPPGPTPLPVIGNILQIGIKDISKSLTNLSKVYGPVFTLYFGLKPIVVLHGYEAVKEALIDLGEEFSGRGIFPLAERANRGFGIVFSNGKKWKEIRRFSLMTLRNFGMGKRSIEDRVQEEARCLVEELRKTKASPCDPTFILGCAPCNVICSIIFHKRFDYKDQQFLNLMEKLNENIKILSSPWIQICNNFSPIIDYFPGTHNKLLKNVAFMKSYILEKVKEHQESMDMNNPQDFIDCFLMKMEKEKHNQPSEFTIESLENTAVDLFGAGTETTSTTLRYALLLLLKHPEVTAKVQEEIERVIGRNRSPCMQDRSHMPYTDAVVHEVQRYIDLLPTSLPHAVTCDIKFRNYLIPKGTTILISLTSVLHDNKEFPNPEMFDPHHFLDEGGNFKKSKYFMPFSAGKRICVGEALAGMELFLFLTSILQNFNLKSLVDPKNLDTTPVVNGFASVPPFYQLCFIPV
T5 sequence (P33261 whole entry): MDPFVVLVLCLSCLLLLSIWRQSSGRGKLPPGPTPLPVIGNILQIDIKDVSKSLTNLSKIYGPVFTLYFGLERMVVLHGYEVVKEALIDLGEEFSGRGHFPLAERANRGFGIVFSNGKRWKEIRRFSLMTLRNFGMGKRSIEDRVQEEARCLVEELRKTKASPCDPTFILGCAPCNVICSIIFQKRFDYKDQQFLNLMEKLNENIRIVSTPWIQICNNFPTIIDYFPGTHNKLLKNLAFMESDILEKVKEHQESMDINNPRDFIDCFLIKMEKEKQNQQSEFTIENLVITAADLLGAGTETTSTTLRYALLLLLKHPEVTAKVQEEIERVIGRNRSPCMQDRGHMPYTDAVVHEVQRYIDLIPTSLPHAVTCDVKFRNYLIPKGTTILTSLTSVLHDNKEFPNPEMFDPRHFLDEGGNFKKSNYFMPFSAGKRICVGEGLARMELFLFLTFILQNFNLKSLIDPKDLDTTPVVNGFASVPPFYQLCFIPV
T6 sequence (P10635 whole entry): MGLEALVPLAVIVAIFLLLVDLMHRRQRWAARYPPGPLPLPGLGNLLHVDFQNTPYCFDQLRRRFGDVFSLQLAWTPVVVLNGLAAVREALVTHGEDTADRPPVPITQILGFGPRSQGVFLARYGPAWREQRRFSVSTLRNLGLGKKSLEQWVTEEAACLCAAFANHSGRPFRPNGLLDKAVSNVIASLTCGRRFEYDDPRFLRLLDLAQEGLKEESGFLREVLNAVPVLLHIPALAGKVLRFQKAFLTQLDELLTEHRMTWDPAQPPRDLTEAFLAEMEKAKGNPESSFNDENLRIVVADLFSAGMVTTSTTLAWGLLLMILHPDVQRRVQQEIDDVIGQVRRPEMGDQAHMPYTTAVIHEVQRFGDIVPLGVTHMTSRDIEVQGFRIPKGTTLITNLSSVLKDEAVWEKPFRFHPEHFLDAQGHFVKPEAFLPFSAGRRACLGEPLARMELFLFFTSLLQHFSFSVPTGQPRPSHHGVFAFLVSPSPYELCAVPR

COc1ccc(CNc2ccc(Cc3ccncc3)cc2)cc1 [5m, N-(4-Methoxybenzyl)-4-(pyridin-4-ylmethyl)aniline] was tested, and the “upregulation of iniB reporter” value [1] was “did not induce the upregulation”, the IC50 (CYP125 [2]; CYP125 0.5 μM, cholest-4-en-3-one 5 µM, LC-MS, read-out: CYP125A1 IC50) was 350 ± 40 nM and the Ki (CYP125 [2]; estimated by Cheng-Prusoff, cholest-4-en-3-one Km CYP125 = 2.1 µM, read-out: CYP125A1 KI) was < 1000 nM and 100 nM. The Ki (CYP125 [2]; one bound given for both enzymes, read-out: KI, enzyme activity in vitro (CYP125/142)) was under 100 nM, the Ki (CYP125 [2]; one range given for both enzymes, read-out: KI, catalytic activity in vitro (CYP125/142)) was 50 to 100 nM and the IC50 (Mtb CDC1551 [3]) was 4700 nM. For the same compound, the MIC90 ([4]; 168 h, read-out: MIC90 (W1) MDR-TB, MABA 1 week post-compound treatment) was 0.39 µM (≈ 0.119 µg/mL), the MIC90 ([4]; 336 h, read-out: MIC90 (W2) MDR-TB, MABA 2 weeks post-compound treatment) was 12.5 µM (≈ 3.8 µg/mL) and the IC50 (CYP2C9) was 1860 nM. It also gave an IC50 (CYP3A4; CYP3A4 IC50 (midazolam), substrate midazolam (first value of cell)) of 520 nM, an IC50 (CYP3A4; CYP3A4 IC50 (testosterone), substrate testosterone (second value of cell)) of 1820 nM and an IC50 (CYP1A) of 820 nM. The IC50 (CYP2C19) was 440 nM, the IC50 (CYP2D6) was 330 nM and the “improvement in binding affinity KD 1a/5m, CYP125” value (CYP125 [5]) was over 1000 fold. For the same compound, the “ligand efficiency (LE)” value (CYP125 [5]) was over 0.4, the “group efficiency (GE) of the benzylamine” value (CYP125 [5]; CYP125 and CYP142) was 0.20–0.50 and the Kd (CYP125 [5]; KD, dual CYP125/142 ligand) was 0.04 to 0.16 µM and ~0.1 µM. For the same compound, the “ΔΔG [5m-1a], CYP125” value (CYP125 [5]; proportion of binding affinity attributed to the 1a-ii hotspot) was 0.5, the Kd (CYP125 [5]; read-out: KD (μM) CYP125) was 0.04 ± 0.021 µM and the “HepG2 LD50 / IC50, galactose media” value (HepG2 cells; galactose-containing media, mean ± SD n = 2) was 3200 nM. For the same compound, the “HepG2 LD50 / IC50, glucose media” value (HepG2 cells; standard (glucose-containing) media) was over 50000 nM, the IC50 (Mtb CDC1551 [6]; CDC1551, 168 h, 1 week post-compound treatment, read-out: ATP-IC50 (W1) CDC1551, cholesterol) was 590 nM and the IC50 (Mtb CDC1551 [6]; CDC1551, 336 h, 2 weeks post-compound treatment, read-out: ATP-IC50 (W2) CDC1551, cholesterol) was 9400 nM. The “upregulation of recA reporter” value [7] was “did not induce the upregulation”, the MIC99 (Mtb CDC1551 [8]) was 13 µM (≈ 3.96 µg/mL) and the IC50 [9] was 1700 ± 180 nM. For the same compound, the IC50 (Mtb (Erdman)) was 2900 ± 190 nM, the “THP-1 cytotoxicity in words” value [10] was “no effect on THP-1 cell viability” and the MIC99 (Mtb H37Rv; 336 h, cholesterol as sole carbon source, 2 weeks post-compound treatment, read-out: MABA-MIC99 (W2) H37Rv, cholesterol) was 1.5 µM. The MIC99 (Mtb H37Rv; 336 h, cholesterol as sole carbon source, 2 weeks, conversion of 1.5 μM, read-out: MIC99 H37Rv, cholesterol) was about 0.46 µg/mL, the MIC99 (Mtb H37Rv; read-out: MIC99, growth of Mtb in extracellular assays) was 0.4 to 1.5 µM and the “upregulation of radA reporter” value [11] was “did not induce the upregulation”.
